The record followed here is US11926628B2 (Gilead Sciences, Inc., priority 2021, dated 2024).

SMILES strings stand for the structures.

One assay deals with human DGKα (Homo sapiens (Human), UniProt P23743). Description: DGKα Biochemical Activity Assay (ADP-Glo). The conditions noted are these: recombinant DGKα 1 nM, 100 μM ATP, 18:1 DAG/POPS/octylglucoside micelles, 1 hour at 25° C.; geometric mean; read-out: HTBS DGKa 1X ATP KM IC50. The procedure, abridged: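 Recombinant DGKα (1 nM final) was preincubated with compound for 15 min, then reacted for 1 h at 25 °C with 100 μM ATP and octylglucoside micelles of 0.85 mM 18:1 DAG and 6.75 mM POPS in pH 7.2 MOPS with 5 mM MgCl2. ADP formed was read by ADP-Glo luminescence. IC50 came from four-parameter fits normalized to DMSO and 50 μM CU3, and values were geometric means.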
Sequence of human DGKα (P23743 whole entry): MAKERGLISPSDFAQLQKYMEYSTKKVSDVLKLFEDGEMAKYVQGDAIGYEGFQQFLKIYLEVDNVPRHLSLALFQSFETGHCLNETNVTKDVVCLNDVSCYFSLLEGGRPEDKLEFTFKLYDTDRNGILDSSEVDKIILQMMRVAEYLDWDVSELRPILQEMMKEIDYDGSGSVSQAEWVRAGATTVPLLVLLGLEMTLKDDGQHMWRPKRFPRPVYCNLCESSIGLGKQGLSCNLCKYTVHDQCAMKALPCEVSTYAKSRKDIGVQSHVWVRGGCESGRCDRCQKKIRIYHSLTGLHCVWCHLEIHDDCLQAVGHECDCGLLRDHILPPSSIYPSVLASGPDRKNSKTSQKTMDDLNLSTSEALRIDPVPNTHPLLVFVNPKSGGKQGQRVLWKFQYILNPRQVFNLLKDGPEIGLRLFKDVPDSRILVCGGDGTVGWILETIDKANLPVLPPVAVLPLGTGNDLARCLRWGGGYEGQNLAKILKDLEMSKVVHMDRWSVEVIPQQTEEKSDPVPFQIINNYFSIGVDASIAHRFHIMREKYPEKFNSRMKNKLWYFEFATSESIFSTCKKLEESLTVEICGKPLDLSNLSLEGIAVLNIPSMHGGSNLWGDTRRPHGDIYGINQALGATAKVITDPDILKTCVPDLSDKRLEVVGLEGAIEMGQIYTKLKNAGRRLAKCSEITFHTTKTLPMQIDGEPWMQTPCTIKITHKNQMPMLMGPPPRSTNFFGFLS
For orientation: ADP-Glo turns the ADP formed in a reaction into a luminescent signal.

Assay [1] deals with Jurkat NFκB-luciferase cells. As to the kind of experiment: Jurkat NFκB-Luciferase Assay. Format: cell-based. The conditions noted are these: Homo sapiens; Jurkat NFκB-luciferase cells activated with anti-CD3 antibody (OKT3), 2.5 hrs at 37° C.; geometric mean; read-out: DGK NFKb Luciferase EC50. The procedure, abridged: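 Jurkat NFκB-luciferase reporter cells stimulated on plate-bound anti-CD3 (5 ug/ml coating) with compound, 2.5 hrs at 37° C then 30 min at 25° C; luminescence read with One-Glo Ex. Normalized to DMSO (basal) and 1 micromolar compound (maximum) controls; EC50 from four-parameter fit, geometric mean across experiments.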

A word on the IC50: it is the concentration that gives 50% inhibition. Usually EC50 stands for the concentration that produces a half-maximal response.

In the case of `CN(c1cccc(-c2ccc(C3CC3)cc2)c1)c1nc2nncn2c2nc(N)ccc12` [Example 127, N5-(4′-cyclopropyl-[1,1′-biphenyl]-3-yl)-N5-methylpyrido[3,2-e][1,2,4]triazolo[4,3-a]pyrimidine-2,5-diamine], on human DGKα, the IC50 is 7.25 nM. In assay [1], the EC50 amounted to 1.43 nM.

Take `Cc1nnc2nc(N3CCCc4c(C#CC5(C(F)(F)F)CC5)cccc43)c3ccc(C(F)(F)F)nc3n12` [Example 142, 9-methyl-2-(trifluoromethyl)-5-(5-((1-(trifluoromethyl)cyclopropyl)ethynyl)-3,4-dihydroquinolin-1(2H)-yl)pyrido[3,2-e][1,2,4]triazolo[4,3-a]pyrimidine]: on human DGKα, the half-inhibitory concentration (IC50) is 712 nM. The 50% effective concentration (EC50) in assay [1] worked out at 0.464 nM.

`Cc1nnc2nc(N3CCOCc4c(C#CC(C)(C)C#N)cccc43)c3ccc(C(F)(F)F)nc3n12` [Example 138, 2,2-dimethyl-4-(1-(9-methyl-2 (trifluoromethyl)pyrido[3,2-e][1,2,4]triazolo[4,3-a]pyrimidin-5-yl)-1,2,3,5-tetrahydrobenzo[e][1,4]oxazepin-6-yl)but-3-ynenitrile]: the half-inhibitory concentration (IC50) on human DGKα is 6.56 nM. Besides, in assay [1], the EC50 was found to be 4.35 nM.

Consider `CNc1ccc2c(N(C)c3cccc(-c4ccc(OC)nc4)c3)nc3nncn3c2n1` [Example 119, N5-(3-(6-methoxypyridin-3-yl)phenyl)-N2,N5-dimethylpyrido[3,2-e][1,2,4]triazolo[4,3-a]pyrimidine-2,5-diamine], for which, on human DGKα, the half-inhibitory concentration (IC50) stood at 392 nM. Besides, in assay [1], the 50% effective concentration (EC50) stood at 52.2 nM.

As to `COc1ccc2c(N(C)c3cccc(C#CC(C)(C)C)c3)nc3nncn3c2n1` [Example 128, N-(3-(3,3-dimethylbut-1-yn-1-yl)phenyl)-2-methoxy-N-methylpyrido[3,2-e][1,2,4]triazolo[4,3-a]pyrimidin-5-amine], the IC50 on human DGKα is 102 nM. Further, in assay [1], the EC50 came to 3.46 nM.

With `Cc1nnc2nc(N3CCCc4c(C#Cc5cnn(C)c5)cccc43)c3cc(F)cnc3n12` [Example 135], the half-inhibitory concentration (IC50) on human DGKα stood at 4.03 nM. The EC50 in assay [1] turned out to be 3.1 nM.

Consider `Cc1nnc2nc(N(CC(F)F)c3cc(F)cc(C#CC4(C)CC4)c3)c3cc(F)cnc3n12` [Example 104, N-(2,2-difluoroethyl)-3-fluoro-N-(3-fluoro-5-((1-methylcyclopropyl)ethynyl)phenyl)-9-methylpyrido[3,2-e][1,2,4]triazolo[4,3-a]pyrimidin-5-amine], for which the IC50 at human DGKα stood at 14.5 nM. In addition, the EC50 in assay [1] is 3.53 nM.

In the case of `FC(F)(F)C1(C#Cc2cccc3c2CCCN3c2nc3nncn3c3cnccc23)CC1` [Example 83, 8-[5-[2-[1-(trifluoromethyl)cyclopropyl]ethynyl]-3,4-dihydro-2H-quinolin-1-yl]-2,4,5,7,12-pentazatricyclo[7.4.0.02,6]trideca-1(13),3,5,7,9,11-hexaene], the IC50 at human DGKα stood at 14.2 nM. Besides, in assay [1], the EC50 stood at 1.76 nM.

`CC(C)(C#Cc1cc(F)cc(N(CC(F)F)c2nc3nncn3c3cncc(F)c23)c1)C(F)(F)F` [Example 46, N-(2,2-difluoroethyl)-6-fluoro-N-(3-fluoro-5-(4,4,4-trifluoro-3,3-dimethylbut-1-yn-1-yl)phenyl)pyrido[4,3-e][1,2,4]triazolo[4,3-a]pyrimidin-5-amine]: the IC50 on human DGKα amounted to 40.9 nM. In assay [1], the EC50 worked out at 3.34 nM.

Turning to `Cc1nnc2nc(N(CC(F)F)c3cc(F)cc(C#CC4(C(F)F)CC4)c3)c3cc(F)cnc3n12` [Example 105, N-(2,2-difluoroethyl)-N-(3-((1-(difluoromethyl)cyclopropyl)ethynyl)-5-fluorophenyl)-3-fluoro-9-methylpyrido[3,2-e][1,2,4]triazolo[4,3-a]pyrimidin-5-amine], the half-maximal inhibitory concentration (IC50) on human DGKα was 13.3 nM. Also, in assay [1], the EC50 was found to be 5.57 nM.

For the molecule `Cc1nnc2nc(N3CCCc4c(C#CC(C)(C)O)cccc43)c3ccc(C(F)(F)F)nc3n12` [Example 145, 2-methyl-4-(1-(9-methyl-2-(trifluoromethyl)pyrido[3,2-e][1,2,4]triazolo[4,3-a]pyrimidin-5-yl)-1,2,3,4-tetrahydroquinolin-5-yl)but-3-yn-2-ol], at human DGKα, the IC50 turned out to be 59.6 nM. The EC50 in assay [1] was determined as 8.73 nM.

As to `CC(C)(C#Cc1cccc2c1CCCN2c1nc2nncn2c2cncc(F)c12)C(F)(F)F` [Example 84, 10-fluoro-8-[5-(4,4,4-trifluoro-3,3-dimethyl-but-1-ynyl)-3,4-dihydro-2H-quinolin-1-yl]-2,4,5,7,12-pentazatricyclo[7.4.0.02,6]trideca-1(13),3,5,7,9,11-hexaene], the IC50 on human DGKα came to 10.7 nM. Besides, in assay [1], the 50% effective concentration (EC50) worked out at 1.19 nM.

With `Cc1nnc2nc(N3CCOCc4c(C#CC5(C(C)(F)F)CC5)cccc43)c3c(F)cncc3n12` [Example 94, 6-((1-(1,1-difluoroethyl)cyclopropyl)ethynyl)-1-(6-fluoro-1-methylpyrido[4,3-e][1,2,4]triazolo[4,3-a]pyrimidin-5-yl)-1,2,3,5-tetrahydrobenzo[e][1,4]oxazepine], the half-inhibitory concentration (IC50) on human DGKα was 25.1 nM. The EC50 in assay [1] was 3.39 nM.

With `Fc1cc(C#CC2(C(F)F)CC2)cc(N(CC(F)F)c2nc3nncn3c3cncc(F)c23)c1` [Example 43, N-(2,2-difluoroethyl)-N-(3-((1-(difluoromethyl)cyclopropyl)ethynyl)-5-fluorophenyl)-6-fluoropyrido[4,3-e][1,2,4]triazolo[4,3-a]pyrimidin-5-amine], the IC50 on human DGKα is 33 nM. For the same molecule, the 50% effective concentration (EC50) in assay [1] stood at 5.48 nM.

As to `Cc1nnc2nc(N(CC(F)F)c3cc(F)cc(C#CC4(C)CC4)c3)c3c(F)cncc3n12` [Example 49, N-(2,2-difluoroethyl)-6-fluoro-N-(3-fluoro-5-((1-methylcyclopropyl)ethynyl)phenyl)-1-methylpyrido[4,3-e][1,2,4]triazolo[4,3-a]pyrimidin-5-amine], the IC50 at human DGKα came to 12.6 nM. Besides, the concentration giving a half-maximal response (EC50) in assay [1] was 6.04 nM.

With `CN(c1cccc(C#CC(C)(C)O)c1)c1nc2nccn2c2cc(Cl)ccc12` [Example 1, 4-(3-((8-chloroimidazo[1,2-a]quinazolin-5-yl)(methyl)amino)phenyl)-2-methylbut-3-yn-2-ol], at human DGKα, the IC50 stood at 165 nM. For the same molecule, in assay [1], the EC50 was 14 nM.

For the molecule `CC(C)(C)C#Cc1cc(F)cc(N(CC(F)F)c2nc3nncn3c3cncc(F)c23)c1` [Example 44, N-(2,2-difluoroethyl)-N-(3-(3,3-dimethylbut-1-yn-1-yl)-5-fluorophenyl)-6-fluoropyrido[4,3-e][1,2,4]triazolo[4,3-a]pyrimidin-5-amine], on human DGKα, the IC50 came out at 32.7 nM. Also, in assay [1], the EC50 came out at 1.93 nM.

As to `Cc1nnc2nc(N3CCCc4c(C#CC5(C(F)F)CC5)cncc43)c3c(F)cncc3n12` [Example 35, 5-(5-((1-(difluoromethyl)cyclopropyl)ethynyl)-3,4-dihydro-1,7-naphthyridin-1(2H)-yl)-6-fluoro-1-methylpyrido[4,3-e][1,2,4]triazolo[4,3-a]pyrimidine], the IC50 on human DGKα amounted to 20.1 nM. For the same molecule, the EC50 in assay [1] was found to be 5.97 nM.

As to `Cc1nnc2nc(N3CCCOc4c(C#CC(C)(C)C(F)(F)F)cccc43)c3c(F)cncc3n12` [Example 70, 5-(6-fluoro-1-methylpyrido[4,3-e][1,2,4]triazolo[4,3-a]pyrimidin-5-yl)-9-(4,4,4-trifluoro-3,3-dimethylbut-1-yn-1-yl)-2,3,4,5-tetrahydrobenzo[b][1,4]oxazepine], the IC50 on human DGKα stood at 6.44 nM. Also, the EC50 in assay [1] worked out at 2.62 nM.
